Target: T1, human PAR4 (Homo sapiens, UniProt Q96RI0)
T1 construct: expressed in transfected cells; host or cells: HEK293 PAR4 Clone 1.2A (BMS Arctic ID 383940)
T1 sequence (Q96RI0 18-385): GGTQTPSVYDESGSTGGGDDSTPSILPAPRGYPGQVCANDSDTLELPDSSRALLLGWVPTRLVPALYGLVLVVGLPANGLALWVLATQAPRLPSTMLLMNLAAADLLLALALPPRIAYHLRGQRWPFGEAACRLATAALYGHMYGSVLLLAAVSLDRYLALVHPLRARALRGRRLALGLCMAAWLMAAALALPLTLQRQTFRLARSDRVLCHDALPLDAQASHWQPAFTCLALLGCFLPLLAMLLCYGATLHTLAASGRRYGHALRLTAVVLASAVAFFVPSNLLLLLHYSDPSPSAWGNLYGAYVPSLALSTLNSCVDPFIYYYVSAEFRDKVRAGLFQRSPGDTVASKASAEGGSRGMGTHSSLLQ
Test: PAR4 FLIPR assay: antagonism of agonist-peptide-induced calcium mobilization in PAR4-expressing HEK293 cells
Type: cell-based
Details: H-Ala-Phe(4-F)-[…]NH2-induced intracellular calcium mobilization, 11-point curves

Row | IC50 [nM] | Compound
1 | 1.7 | COCc1cnc2c(-c3nc4c(C5CC5)cc(OCCNS(=O)(=O)c5ccccc5)cc4s3)cc(C)cc2n1 [Example 104, N-(2-(4-cyclopropyl-2-(2-(methoxymethyl)-7-methylquinoxalin-5-yl)benzo[d]thiazol-6-yloxy)ethyl)benzenesulfonamide]
2 | 120 | COc1cnc2c(-c3cc4ccccc4o3)nc(C)cc2c1 [Example 134, 8-(benzofuran-2-yl)-3-methoxy-6-methyl-1,7-naphthyridine\]
3 | 8.6 | COc1cnc2c(-c3nc4c(Cl)c(F)c(OCCOC(=O)NCc5ccn(C)n5)cc4s3)cc(C)cc2n1 [Example 398, 2-((4-chloro-5-fluoro-2-(2-methoxy-7-methylquinoxalin-5-yl)benzo[d]thiazol-6-yl)oxy)ethyl ((1-methyl-1H-pyrazol-3-yl)methyl)carbamate]
4 | 1.9 | COc1cnc2c(-c3nc4cc(F)c(O[C@@H](C)[C@@H](C)OC(=O)Nc5ccc(C(=O)N(C)C)nc5)cc4s3)cc(C)cc2n1 [Example 438, (2R,3S)-3-((5-fluoro-2-(2-methoxy-7-methylquinoxalin-5-yl)benzo[d]thiazol-6-yl)oxy)butan-2-yl (6-(dimethylcarbamoyl)pyridin-3-yl)carbamate]
5 | 1.9 | COc1cnc2c(-c3nc4cc(F)c(OC[C@@H](C)OC(=O)Nc5cnc(CO)nc5)cc4s3)cc(C)cc2n1 [Example 496, (R)-1-((5-fluoro-2-(2-methoxy-7-methylquinoxalin-5-yl)benzo[d]thiazol-6-yl)oxy)propan-2-yl (2-(hydroxymethyl)pyrimidin-5-yl)carbamate]
6 | 1.4 | COCc1cnc2c(-c3nc4c(C(C)O)cc(OC)cc4s3)cc(C)cc2n1 (stereo not shown) [Example 156, 1-(6-methoxy-2-(2-(methoxymethyl)-7-methylquinoxalin-5-yl)benzo[d]thiazol-4-yl) ethanol]
7 | 2.7 | COc1cnc2c(-c3nc4cc(F)c(O[C@@H](C)[C@@H](C)OC(=O)Nc5cncc(F)c5)cc4s3)cc(Cl)cc2c1 [Example 782, (2R,3S)-3-((2-(6-chloro-3-methoxyquinolin-8-yl)-5-fluorobenzo[d]thiazol-6-yl)oxy)butan-2-yl (5-fluoropyridin-3-yl)carbamate]
8 | 94 | CNCCOc1ccc2oc(-c3cc(C)cc4nc(OC(F)F)cnc34)cc2c1 [Example 54, 2-(2-(2-(difluoromethoxy)-7-methylquinoxalin-5-yl)benzofuran-5-yloxy)-N-methylethanamine]
9 | 8.3 | COCc1cnc2c(-c3nc4ccc(C(=O)OC)cc4s3)cc(C)cc2n1 [Example 264]
10 | 2.9 | COc1cnc2c(-c3nc4cc(F)c(O[C@@H](C)[C@@H](C)OC(=O)Nc5cnc(C)c(C)c5)cc4s3)cc(Cl)cc2c1 [Example 787, (2R,3S)-3-((2-(6-chloro-3-methoxyquinolin-8-yl)-5-fluorobenzo[d]thiazol-6-yl)oxy)butan-2-yl (5,6-dimethylpyridin-3-yl)carbamate]
11 | 2.1 | COc1cnc2c(-c3nc4cc(F)c(OC[C@@H](C)OC(=O)Nc5ccc6c(ccn6C)c5)cc4s3)cc(C)cc2n1 [Example 356, (R)-1-((5-fluoro-2-(2-methoxy-7-methylquinoxalin-5-yl)benzo[d]thiazol-6-yl)oxy)propan-2-yl (1-methyl-1H-indol-5-yl)carbamate]
12 | 0.3 | COCc1cnc2c(-c3nc4c(Cl)cc(OC)cc4s3)cc(Cl)cc2n1 [Example 210, 4-chloro-2-(7-chloro-2-(methoxymethyl)quinoxalin-5-yl)-6-methoxybenzo[d]thiazole]
13 | 4.1 | COc1cnc2c(-c3nc4c(Cl)c(F)c(OCCOC(=O)Nc5cnc(C)nc5)cc4s3)cc(C)cc2n1 [Example 362, 2-((4-chloro-5-fluoro-2-(2-methoxy-7-methylquinoxalin-5-yl)benzo[d]thiazol-6-yl)oxy)ethyl (2-methylpyrimidin-5-yl)carbamate]
14 | 80 | Cc1cc(-c2nc3ccc(OCCNC(=O)OC4CCOC4)cc3s2)c2ncc(OC(F)F)nc2c1 (stereo not shown) [Example 16, tetrahydrofuran-3-yl (2-((2-(2-(difluoromethoxy)-7-methylquinoxalin-5-yl)benzo[d]thiazol-6-yl)oxy)ethyl)carbamate]
15 | 6.4 | COCc1cnc2c(-c3nc4c(C)cc(Cl)nc4s3)cc(C)cc2n1 [Example 191, 5-chloro-2-(2-(methoxymethyl)-7-methylquinoxalin-5-yl)-7-methylthiazolo[5,4-b] pyridine]
16 | 1.3 | COc1cnc2c(-c3nc4cc(F)c(OC[C@@H](C)OC(=O)Nc5ccc(C(C)(C)O)nc5)cc4s3)cc(C)cc2n1 [Example 498, (R)-1-((5-fluoro-2-(2-methoxy-7-methylquinoxalin-5-yl)benzo[d]thiazol-6-yl)oxy)propan-2-yl (6-(2-hydroxypropan-2-yl)pyridin-3-yl)carbamate]
17 | 4.6 | COc1cc(C(O)c2cccc(C(F)(F)F)c2)c2nc(-c3cc(C)cc4nc(OC)cnc34)sc2c1 (stereo not shown) [Example 642, (6-methoxy-2-(2-methoxy-7-methylquinoxalin-5-yl)benzo[d]thiazol-4-yl)(3-(trifluoromethyl)phenyl)methanol]
18 | 1.1 | COc1cc(C(O)C2(OC)CCC2)c2nc(-c3cc(C)cc4nc(OC)cnc34)sc2c1 (stereo not shown) [Example 666, (6-methoxy-2-(2-methoxy-7-methylquinoxalin-5-yl)benzo[d]thiazol-4-yl)(1-methoxycyclobutyl)methanol]
19 | 8.5 | Cc1cc(-c2nc3c(C)cc(OCCNS(=O)(=O)c4ccc(F)c(F)c4)cc3s2)c2ncc(OC(F)F)nc2c1 [Example 85, N-(2-(2-(2-(difluoromethoxy)-7-methylquinoxalin-5-yl)-4-methylbenzo[d]thiazol-6-yloxy)ethyl)-3,4-difluorobenzenesulfonamide]
20 | 21 | COc1cc(C)c2nc(-c3cc(C#N)cc4nc(OC)cnc34)sc2c1 [Example 211, 3-methoxy-8-(6-methoxy-4-methylbenzo[d]thiazol-2-yl)quinoxaline-6-carbonitrile]
21 | 0.9 | COc1cnc2c(-c3nc4cc(F)c(O[C@@H](C)[C@@H](C)OC(=O)Nc5ccc(C(=O)NC[C@H](C)O)nc5)cc4s3)cc(C)cc2n1 [Example 441, (2R,3S)-3-((5-fluoro-2-(2-methoxy-7-methylquinoxalin-5-yl)benzo[d]thiazol-6-yl)oxy)butan-2-yl (6-(((S)-2-hydroxypropyl)carbamoyl)pyridin-3-yl)carbamate]
22 | 3.4 | COc1cnc2c(-c3nc4cc(F)c(O[C@@H](C)[C@@H](C)OC(=O)Nc5ccc(C(C)O)nc5)nc4s3)cc(C)cc2n1 (single isomer, unassigned) [Example 767]
23 | 1.3 | COc1cnc2c(-c3nc4cc(F)c(OC[C@@H](C)OC(=O)Nc5ccc(CCO)nc5)cc4s3)cc(C)cc2n1 [Example 543, (R)-1-((5-fluoro-2-(2-methoxy-7-methylquinoxalin-5-yl)benzo[d]thiazol-6-yl)oxy)propan-2-yl (6-(2-hydroxyethyl)pyridin-3-yl)carbamate]
24 | 2.2 | COc1cnc2c(-c3nc4c(C)cc(OCCNS(=O)(=O)c5ccc(F)cc5)cc4s3)cc(CO)cc2n1 [Example 235, 4-fluoro-N-(2-((2-(7-(hydroxymethyl)-2-methoxyquinoxalin-5-yl)-4-methylbenzo[d]thiazol-6-yl)oxy)ethyl)benzenesulfonamide]
25 | 41 | Cc1cc(-c2nc3ccc(OCCNC(=O)OCC4CCCO4)cc3s2)c2ncc(OC(F)F)nc2c1 (stereo not shown) [Example 19, (Tetrahydrofuran-2-yl)methyl (2-((2-(2-(difluoromethoxy)-7-methylquinoxalin-5-yl)benzo[d]thiazol-6-yl)oxy)ethyl)carbamate]
26 | 1.1 | CCOc1cnc2c(-c3nc4cc(F)c(O[C@@H](C)[C@@H](C)OC(=O)Nc5cnc(OC[C@@H](C)O)nc5)cc4s3)cc(C)cc2n1 [Example 580, (2R,3S)-3-((2-(2-ethoxy-7-methylquinoxalin-5-yl)-5-fluorobenzo[d]thiazol-6-yl)oxy)butan-2-yl (2-((R)-2-hydroxypropoxy)pyrimidin-5-yl)carbamate]
27 | 3.7 | COc1cnc2c(-c3nc4cc(F)c(OC[C@H](C)OC(=O)Nc5cccnc5)cc4s3)cc(C)cc2n1 [Example 346, (S)-1-((5-fluoro-2-(2-methoxy-7-methylquinoxalin-5-yl)benzo[d]thiazol-6-yl)oxy)propan-2-ylpyridin-3-ylcarbamate]
28 | 36 | COCc1cnc2c(-c3nc4c(s3)C(O)CCC4)cc(C)cc2n1 (stereo not shown) [Example 143, 2-(2-(methoxymethyl)-7-methylquinoxalin-5-yl)-4,5,6,7-tetrahydrobenzo[d]thiazol-7-ol]
29 | 2 | CCOc1cnc2c(-c3nc4cc(F)c(O[C@@H](C)[C@@H](C)OC(=O)Nc5cnc(C)nc5)cc4s3)cc(C)cc2c1 [Example 660, (2R,3S)-3-((2-(3-ethoxy-6-methylquinolin-8-yl)-5-fluorobenzo[d]thiazol-6-yl)oxy)butan-2-yl (2-methylpyrimidin-5-yl)carbamate]
30 | 1.3 | COc1ccc(NC(=O)OC[C@H](C)Oc2cc3sc(-c4cc(C)cc5nc(OC)cnc45)nc3c(Cl)c2F)cn1 (single isomer, unassigned) [Example 382]

Row | Compound | IC50 [nM]
31 | COc1cnc2c(-c3nc4cc(F)c(OCC(COCC(C)C)OC(=O)Nc5cnc(C)nc5)cc4s3)cc(C)cc2n1 (racemic) [Example 525, 1-((5-fluoro-2-(2-methoxy-7-methylquinoxalin-5-yl)benzo[d]thiazol-6-yl)oxy)-3-isobutoxypropan-2-yl (2-methylpyrimidin-5-yl)carbamate (rac)] | 2.3
